Here are results for one substance from paper PMC2891831, “Insight into the Mechanisms of Adenovirus Capsid Disassembly from Studies of Defensin Neutralization” (PLoS Pathogens, 2010).

One assay concerns HAdV-12. Put plainly: Infection assay (hexon staining), HAdV-12. The assay is classed as cell-based, human adenovirus. The note with it: 15 µM HNP1, A549 cells, vs. no defensin. How it is done: (§1) To determine whether sensitivity to α-defensins is a general property of HAdVs, serotypes representative of HAdV species A–F were tested for infectivity in the presence of 15 µM HD5 or HNP1 (Figure 1). Wild type HAdVs rather than vectors were used for these studies, and infectivity was assessed by staining for hexon production. […] These studies indicate that sensitivity to α-defensins is species specific. In addition, particular HAdV serotypes are not equally sensitive to all defensins, indicating defensin sequence specificity as well.
(§2) Figure 1 Sensitivity to neutralization by alpha-defensins is AdV species specific. HAdVs were incubated with 15 µM HD5 (A) or HNP1 (B) and assessed for infectivity on A549 cells. Data are the mean of the percent infectivity compared to control cells infected with each virus in the absence of defensin for at least three independent experiments ± SD. The upper limit for quantification of this assay is 200%. […]
(§3) Prior to use in this assay, each virus stock was titrated on A549 cells. […] In parallel, wells were infected with two-fold serial dilutions of each virus to establish a standard curve for quantification with an upper limit of 200%. […] Total well fluorescence above background was quantified with ImageJ software. For each virus, samples were quantified by nonlinear regression against the standard curve using Prism software (GraphPad Software, Inc., La Jolla, CA).

A further assay relates to HAdV-4 (species E). Put plainly: Infection assay (hexon staining), HAdV-4. The note with it: 15 µM HD5 or HNP1, A549 cells, hexon staining at ~48 h, vs. no defensin. In kind it is cell-based, human adenovirus. The protocol: as §1, §2, §3
The test system of a further assay is HAdV-16. Put plainly: Infection assay (hexon staining), HAdV-16. The assay is classed as cell-based, human adenovirus. The note with it: 15 µM HNP1, A549 cells, vs. no defensin. How it is done:
as §1, §2, §3

In assay [1] the test system is Serotypes sensitive to HD5. Put plainly: Infection assay (hexon staining), serotypes sensitive to HD5. In kind it is cell-based, human adenovirus. To be noted: 15 µM HNP1, A549 cells, vs. no defensin. How it is done: as §1, §2, §3
A further assay concerns HAdV-5. To be noted: low micromolar concentrations; ref [13]; cited from earlier work.
The subject of a further assay is HAdV-14. Put plainly: Infection assay (hexon staining), HAdV-14. In kind it is cell-based, human adenovirus. The note with it: 15 µM HNP1, A549 cells, vs. no defensin. The protocol: as §1, §2, §3
The subject of another assay is HAdV-3. Kind of assay: Infection assay (hexon staining), HAdV-3. The note with it: 15 µM HNP1, A549 cells, vs. no defensin. The assay is classed as cell-based, human adenovirus. How it is done:
as §1, §2, §3

For “HNP1: human alpha-defensin; synthetic, obtained from Peptides International”, the inhibition of infection entry in the assay on HAdV-12, with HAdV-16, with HAdV-14 and with HAdV-3 was “only modest inhibition” each time. In addition, the “sensitivity to neutralization (infectivity)” value is “resistant” in the assay on HAdV-4 (species E) and “generally sensitive” in assay [1]. In the assay on HAdV-5, the “inhibition of HAdV-5 infection” value is “significantly inhibit HAdV-5 infection at low micromolar concentrations”.
